Measurements published in patent US7871982B2, “Lincomycin derivatives and antimicrobial agents comprising the same as active ingredient” (Meiji Seika Kaisha, Ltd., priority 2005, dated 2011).
≈ marks a conversion by molar mass, not a printed value.

Experiments:
Experiment in all cases: Antimicrobial activity, MIC against pneumococci (agar dilution)
Format in all cases: cell-based
S. pneumoniae PRC-206 = conditions: inoculum 10^6 CFU/ml; for minimal inhibitory concentration (MIC): sensitivity disk agar-N+5% horse blood; for MIC: Streptococcus pneumoniae, PRC206, sensitivity disk agar-N+5% horse blood, read-out: minimal inhibitory concentration (MIC)
Experimental: (§1) For representative compounds among lincomycin derivatives according to the present invention, the minimal inhibitory concentration (MIC, μg/ml) against various pneumococci was measured according to the method described in CHEMOTHERAPY, vol. 16, No. 1, 99, 1968. Sensitivity disk agar-N+5% horse blood was used as the medium for the measurement. The amount of bacteria inoculated was 10^6 CFU/ml.

S. pneumoniae TH-662 = conditions: inoculum 10^6 CFU/ml; for minimal inhibitory concentration (MIC): sensitivity disk agar-N+5% horse blood; for MIC: Streptococcus pneumoniae, TH662, sensitivity disk agar-N+5% horse blood, read-out: minimal inhibitory concentration (MIC)
Experimental: as §1

S. pneumoniae TH-96 = conditions: inoculum 10^6 CFU/ml; for minimal inhibitory concentration (MIC): sensitivity disk agar-N+5% horse blood; for MIC: Streptococcus pneumoniae, TH96, sensitivity disk agar-N+5% horse blood, read-out: minimal inhibitory concentration (MIC)
Experimental: as §1

S. pneumoniae PRC-53 = conditions: inoculum 10^6 CFU/ml; for minimal inhibitory concentration (MIC): sensitivity disk agar-N+5% horse blood; for MIC: Streptococcus pneumoniae, PRC53, sensitivity disk agar-N+5% horse blood, read-out: minimal inhibitory concentration (MIC)
Experimental: as §1

S. pneumoniae 225 = conditions: sensitivity disk agar-N+5% horse blood, inoculum 10^6 CFU/ml; for MIC: Streptococcus pneumoniae, read-out: minimal inhibitory concentration (MIC)
Experimental: as §1

S. pneumoniae DPI Type[…] = conditions: for minimal inhibitory concentration (MIC): S. pneumoniae DPI Type[…], sensitivity disk agar-N+5% horse blood, inoculum 10^6 CFU/ml; for MIC: Streptococcus pneumoniae, read-out: minimal inhibitory concentration (MIC)
Experimental: as §1

S. pneumoniae 1913 = conditions: sensitivity disk agar-N+5% horse blood, inoculum 10^6 CFU/ml; for MIC: Streptococcus pneumoniae, read-out: minimal inhibitory concentration (MIC)
Experimental: as §1

S. pneumoniae PRC0-91 = conditions: inoculum 10^6 CFU/ml; for minimal inhibitory concentration (MIC): sensitivity disk agar-N+5% horse blood
Experimental: as §1

S. pneumoniae 1820 = conditions: sensitivity disk agar-N+5% horse blood, inoculum 10^6 CFU/ml; for MIC: Streptococcus pneumoniae, read-out: minimal inhibitory concentration (MIC)
Experimental: as §1

S. pneumoniae IP692 = conditions: sensitivity disk agar-N+5% horse blood, inoculum 10^6 CFU/ml; for MIC: Streptococcus pneumoniae, read-out: minimal inhibitory concentration (MIC)
Experimental: as §1

| SMILES | minimal inhibitory concentration (MIC) (S. pneumoniae PRC-206) [µg/mL] | minimal inhibitory concentration (MIC) (S. pneumoniae TH-662) [µg/mL] | minimal inhibitory concentration (MIC) (S. pneumoniae TH-96) [µg/mL] | minimal inhibitory concentration (MIC) (S. pneumoniae PRC-53) [µg/mL] | minimal inhibitory concentration (MIC) (S. pneumoniae 225) [µg/mL] | minimal inhibitory concentration (MIC) (S. pneumoniae DPI Type[…]) [µg/mL] | minimal inhibitory concentration (MIC) (S. pneumoniae 1913) [µg/mL] | minimal inhibitory concentration (MIC) (S. pneumoniae PRC0-91) [µg/mL] | minimal inhibitory concentration (MIC) (S. pneumoniae 1820) [µg/mL] | minimal inhibitory concentration (MIC) (S. pneumoniae IP692) [µg/mL] | MIC (S. pneumoniae PRC-206) [µg/mL] | MIC (S. pneumoniae TH-662) [µg/mL] | MIC (S. pneumoniae TH-96) [µg/mL] | MIC (S. pneumoniae PRC-53) [µg/mL] | MIC (S. pneumoniae 225) [µg/mL] | MIC (S. pneumoniae DPI Type[…]) [µg/mL] | MIC (S. pneumoniae 1913) [µg/mL] | MIC (S. pneumoniae 1820) [µg/mL] | MIC (S. pneumoniae IP692) [µg/mL] | MIC (S. pneumoniae PRC0-91; Streptococcus pneumoniae, PRC091, sensitivity disk agar-N+5% horse blood, read-out: minimal inhibitory concentration (MIC)) [µg/mL] |
| --- | --- | --- | --- | --- | --- | --- | --- | --- | --- | --- | --- | --- | --- | --- | --- | --- | --- | --- | --- | --- |
| CCCC1CC(C(=O)NC(C(C)Sc2ccc(N(C)C(=O)COC)cc2)C2OC(SC)C(O)C(O)C2O)N(C)C1 (stereo not drawn) [Compound 170, 7-Deoxy-7-epi-7-(4-(methoxy-N-methylacetamido)phenylthio)-lincomycin] | 16 (≈ 26.7 µM) | 8 (≈ 13.3 µM) | 0.13 (≈ 0.217 µM) | 0.13 (≈ 0.217 µM) | 128 (≈ 213 µM) | 0.13 (≈ 0.217 µM) | 0.13 (≈ 0.217 µM) | 8 (≈ 13.3 µM) | 8 (≈ 13.3 µM) | 0.13 (≈ 0.217 µM) |  |  |  |  |  |  |  |  |  |  |
| CCC[C@@H]1C[C@@H](C(=O)N[C@@H]([C@H]2O[C@H](SC)[C@H](O)[C@@H](O)[C@H]2O)[C@H](C)Sc2ccc(NC(=O)CC)cn2)N(C)C1 [Compound 191, 7-Deoxy-7-epi-7-(5-(propionamido)pyridin-2-ylthio)-lincomycin] | 8 (≈ 14 µM) |  | 0.03 (≈ 0.0526 µM) | 0.03 (≈ 0.0526 µM) | 32 (≈ 56.1 µM) | 0.015 (≈ 0.0263 µM) | 0.015 (≈ 0.0263 µM) | 2 (≈ 3.5 µM) | 4 (≈ 7.01 µM) | 0.015 (≈ 0.0263 µM) |  |  |  |  |  |  |  |  |  |  |
| CCCC1CC(C(=O)NC(C(C)Sc2nnc(NC(=O)COC)s2)C2OC(SC)C(O)C(O)C2O)N(C)C1 (stereo not drawn) [Compound 195, 7-Deoxy-7-epi-7-(5-(2-methoxyacetamido)-1,3,4-thiadiazol-2-ylthio)lincomycin] | 64 (≈ 108 µM) | 8 (≈ 13.5 µM) | 0.06 (≈ 0.101 µM) | 0.06 (≈ 0.101 µM) | 64 (≈ 108 µM) | 0.06 (≈ 0.101 µM) | 0.13 (≈ 0.219 µM) | 8 (≈ 13.5 µM) | 16 (≈ 26.9 µM) | 0.03 (≈ 0.0505 µM) |  |  |  |  |  |  |  |  |  |  |
| CCC[C@@H]1C[C@@H](C(=O)N[C@@H]([C@H]2O[C@H](SC)[C@H](O)[C@@H](O)[C@H]2O)[C@H](C)Sc2ccc(C(=O)N3CCCC3)cc2)N(C)C1 [Compound 228, 7-Deoxy-7-epi-7-(4-(pyrrolidino-carbonyl)phenylthio)lincomycin] | 4 (≈ 6.71 µM) | 2 (≈ 3.36 µM) |  | 0.06 (≈ 0.101 µM) | 16 (≈ 26.9 µM) | 0.13 (≈ 0.218 µM) | 0.13 (≈ 0.218 µM) | 2 (≈ 3.36 µM) | 4 (≈ 6.71 µM) | 0.06 (≈ 0.101 µM) |  |  |  |  |  |  |  |  |  |  |
| CCC[C@@H]1C[C@@H](C(=O)N[C@@H](C2OC(SC)C(O)C(O)C2O)[C@H](C)SCc2ccc(C(=O)N3CCCCC3)cc2)N(C)C1 (stereo partly drawn) [Compound 235, 7-Deoxy-7-epi-7-(4-(piperidino-carbonyl)benzylthio)lincomycin] |  |  |  |  |  |  |  |  |  |  | 4 (≈ 6.41 µM) | 1 (≈ 1.6 µM) | 0.03 (≈ 0.0481 µM) | 0.03 (≈ 0.0481 µM) | 32 (≈ 51.3 µM) | 0.015 (≈ 0.024 µM) | 0.03 (≈ 0.0481 µM) | 8 (≈ 12.8 µM) | 0.015 (≈ 0.024 µM) |  |
| CCC[C@H]1CN[C@H](C(=O)N[C@@H]([C@H]2O[C@H](SC)[C@H](O)[C@@H](O)[C@H]2O)[C@H](C)Sc2nnc(-c3sccc3N)s2)C1 [Compound 304, 7-(5-(3-Aminothiophen-2-yl)-1,3,4-thiadiazol-2-ylthio)-1′-demethyl-7-deoxy-7-epilincomycin] | 4 (≈ 6.78 µM) | 2 (≈ 3.39 µM) | 0.13 (≈ 0.22 µM) | 0.13 (≈ 0.22 µM) | 16 (≈ 27.1 µM) | 0.13 (≈ 0.22 µM) | 0.13 (≈ 0.22 µM) | 2 (≈ 3.39 µM) | 4 (≈ 6.78 µM) | 0.13 (≈ 0.22 µM) |  |  |  |  |  |  |  |  |  |  |
| CCC[C@@H]1CCN[C@H](C(=O)N[C@@H]([C@H]2O[C@H](SC)[C@H](O)[C@@H](O)[C@H]2O)[C@H](C)Sc2ncc(C(=O)OCC)c(N)n2)C1 [Compound 364, Methyl 7-(4-amino-5-ethoxycarbonylpyrimidin-2-ylthio)-7-deoxy-7-epi-6-N-((2S,4R)-4-propyl)pipecoloyl-1-thio-α-lincosamide] | 4 (≈ 6.81 µM) | 2 (≈ 3.4 µM) | 0.06 (≈ 0.102 µM) | 0.03 (≈ 0.051 µM) | 4 (≈ 6.81 µM) | 0.13 (≈ 0.221 µM) | 0.13 (≈ 0.221 µM) |  | 4 (≈ 6.81 µM) | 0.13 (≈ 0.221 µM) |  |  |  |  |  |  |  |  |  |  |
| CC[C@@H]1CCN(C)[C@H](C(=O)N[C@@H]([C@H]2O[C@H](SC)[C@H](O)[C@@H](O)[C@H]2O)[C@H](C)Sc2nnc(-c3ccc(F)cc3[N+](=O)[O-])s2)C1 [Compound 396, Methyl 7-deoxy-7-epi-7-(5-(4-fluoro-2-nitrophenyl)-1,3,4-thiadiazol-2-ylthio)-6-N-((2S,4R)-1-N-methyl-4-ethyl)pipecoloyl-1-thio-α-lincosamide] | 64 (≈ 99.1 µM) | 8 (≈ 12.4 µM) | 0.015 (≈ 0.0232 µM) | 0.015 (≈ 0.0232 µM) | >128 | 0.015 (≈ 0.0232 µM) | 0.008 (≈ 0.0124 µM) | 4 (≈ 6.19 µM) | 16 (≈ 24.8 µM) | 0.008 (≈ 0.0124 µM) |  |  |  |  |  |  |  |  |  |  |
| CCC[C@@H]1C[C@@H](C(=O)N[C@H](C2OC(SC)C(O)C(O)C2O)[C@@H](C)Sc2ccc(-c3cccnc3[N+](=O)[O-])cc2)N(C)C1 (stereo partly drawn) [Compound 446, 7-Deoxy-7-epi-7-(4-(2-nitropyridin-3-yl)phenylthio)-lincomycin] |  |  |  |  |  |  |  |  |  |  | 8 (≈ 12.9 µM) | 2 (≈ 3.22 µM) | 0.015 (≈ 0.0242 µM) | 0.015 (≈ 0.0242 µM) | 64 (≈ 103 µM) | 0.03 (≈ 0.0483 µM) | 0.03 (≈ 0.0483 µM) | 4 (≈ 6.44 µM) | 0.03 (≈ 0.0483 µM) | 4 (≈ 6.44 µM) |
